# Where “and” joins values, the source holds several entries; their conditions need not be identical. Equal values may be shown once.
# Columns and labels:
# [1] = system: Trypanosoma cruzi; experiment: microbe, parasite or virus in culture; format: functional, organism-based, Tulahuen LacZ, Clone C4
# [2] = (§1) DNDI: Cytotoxicity against L-6 rat myoblasts from skeletal muscle cells; details: L6 rat skeletal muscle myoblast cells
# [3] = system: L6; experiment: as §1; details: L6 rat skeletal muscle myoblast cells
# [4] = system: Trypanosoma cruzi; experiment: microbe, parasite or virus in culture; format: functional, Tulahuen LacZ, Clone C4
# [5] = Trypanosoma cruzi, Tulahuen LacZ, Clone C4
SMILES,IC50 [1],"IC50 [1, 5] [nM]",IC50 ([2]; IC50) [µM],IC50 [3] [µM],IC90 [4],"IC90 [4, 5] [nM]",IC50 [2] [µM]
N#Cc1cccc(N2CCC(NC(c3cccnc3)c3ccc(Cl)cc3F)CC2)c1 (configuration not stated),12.5 nM,21,55.4,32.2,34 nM,37,
OC(c1ccc(Cl)cc1)(c1cccnc1)c1cccs1 (configuration not stated),17 nM,13,> 100,67.7,99 nM,108,
FC(F)(F)c1ccc(N2CCC(NC(c3ccc(Cl)cc3)c3cccnc3)CC2)cn1 (configuration not stated),6.6 nM,7,39.6,54.4,16 nM,17.5,
CS(=O)(=O)c1ccc(N2CCC(NC(c3cccnc3)c3ccc(Cl)cc3F)CC2)cc1 (configuration not stated),2.6 nM and 6 nM,,49.7,26.6,8 nM,7.5,
NC(c1ccc(Cl)cc1)(c1cccnc1)c1ccccc1Cl (configuration not stated),,90,,76,,5050,
COc1ccccc1N1CCN(C(c2ccc(OC(C)C)cc2)c2cccnc2)CC1 (configuration not stated),,28,,77.5,,90,
Cc1ccc(C(O)(c2ccc(OC(C)C)cc2)c2cccnc2)c(F)c1 (configuration not stated),,3.2,,62.6,,13,
Clc1ccc(C(c2cccnc2)c2ccccc2Cl)cc1 (configuration not stated),,230,,62.6,,2570,
Clc1ccc(C(c2ccc(Cl)cc2)c2cncnc2)cc1,,682,,70.1,,6780,
FC(F)(F)c1ccc(N2CCC(NC(c3ccc(Cl)cc3)c3cccnc3)CC2)nc1 (configuration not stated),19 nM and 46 nM,,55.3,62.5,90 nM,48,
COc1ccccc1N1CCN(C(c2ccc(C(F)(F)F)cc2)c2cnccn2)CC1 (configuration not stated),,240,,61.7,,420,
CC(C)Oc1ccc(C(O)(c2ccc(C(F)(F)F)cc2)c2cccnc2)cc1 (configuration not stated),,3.73,,47.6,,7,
Cc1ccc(C(O)(c2ccc(Cl)cc2)c2cccnc2)cc1 (configuration not stated),,17,,61.2,,60,
OC(c1ccc(Br)cc1)(c1ccc(C(F)(F)F)cc1)c1cccnc1 (configuration not stated),,20,,54.7,,30,
CC(C)c1ccc(S(=O)(=O)N2CCN(C(c3ccc(Cl)cc3)c3cccnc3)CC2)cc1 (configuration not stated),,12,,80.2,,57,
Clc1ccc(C(c2cccnc2)N2CCN(c3ccccc3)CC2)cc1 (configuration not stated),,34,,67.3,,84,
COc1ccccc1N1CCN(C(c2ccc(Cl)cc2)c2cccnc2)CC1 (configuration not stated),,20,,61.1,,42,
OC(c1ccc(Cl)cc1)(c1ccc(Cl)cc1)c1cccnc1,,90,,49,,27000,
OC(c1ccc(C(F)(F)F)cc1)(c1cccnc1)c1cc2ccccc2s1 (configuration not stated),,20,,58.7,,110,
O=C(Nc1ccc(Cl)cc1)N1CCN(C(c2ccc(Cl)cc2)c2cncnc2)CC1 (configuration not stated),,22,,58.8,,65,
CC(C)Oc1ccc(C(O)(c2ccc(Cl)cc2)c2cccnc2)cc1 (configuration not stated),8.2 nM and 2 nM,,,56.6,18 nM and 6 nM,,52
COc1ccccc1N1CCN(C(c2cncnc2)c2ccc(Cl)cc2F)CC1 (configuration not stated),,65,,59.8,,190,
COc1cccc(C(O)(c2ccc(Cl)cc2)c2cccnc2)c1 (configuration not stated),,61,,85.6,,315,

SMILES,IC50 [1],"IC50 [1, 5] [nM]",IC50 ([2]; IC50) [µM],IC50 [3] [µM],IC90 [4],"IC90 [4, 5] [nM]",IC50 [2] [µM]
CC(C)(C)OC(=O)N1CCN(C(c2cncnc2)c2ccc(Cl)cc2F)CC1 (configuration not stated),,24,,63.9,,420,
CC(C)Oc1ccc(C(O)(c2ccc(OC(C)C)cc2)c2cccnc2)cc1,,16,,61.4,,25,
Cc1noc(N2CCN(C(c3cccnc3)c3ccc(C(F)(F)F)cc3F)CC2)n1 (configuration not stated),,16.5,,51.2,,33,
Cc1ccc(C(O)(c2ccc(Cl)cc2)c2cncnc2)cc1 (configuration not stated),68 nM and 23.8 nM,,79.3,67.4,310 nM,158,
O=C(C1CCCCC1)N1CCN(C(c2cccnc2)c2ccc(Cl)cc2F)CC1 (configuration not stated),,28,,61.7,,200,
CC(C)(C)OC(=O)N1CCN(C(c2cccnc2)c2ccc(Cl)cc2F)CC1 (configuration not stated),,20,,43.5,,94,
Fc1cc(Cl)ccc1C(NC1CCN(c2ccc(C(F)(F)F)cc2)CC1)c1cccnc1 (configuration not stated),11 nM and 10.5 nM,9.5,55.7,52.4,37.5 nM and 34 nM,29.5,
CC(C)Oc1ccc(C(O)(c2cccnc2)c2ccc(Cl)cc2F)cc1 (configuration not stated),,1.3,,56,,3,
CC(C)(C)C(=O)N1CCN(C(c2cccnc2)c2ccc(Cl)cc2F)CC1 (configuration not stated),,19,,60.3,,88,
OC(c1ccc(Cl)cc1)(c1ccc(Br)cc1)c1cncnc1 (configuration not stated),,144,,58.7,,460,
O=S(=O)(c1ccccc1)N1CCN(C(c2ccc(Cl)cc2)c2cccnc2)CC1 (configuration not stated),,8.5,,42.7,,39,
OC(c1ccc(Cl)cc1)(c1ccc(C(F)(F)F)cc1)c1cccnc1 (configuration not stated),,8.2,,56.4,,30,
Fc1cc(Cl)ccc1C(c1cccnc1)N1CCN(c2ncccn2)CC1 (configuration not stated),,26,,59,,92,
FC(F)(F)c1ccc(C(NC2CCN(c3nccs3)CC2)c2cccnc2)cc1 (configuration not stated),9.5 nM,,,54.9,29 nM,,
OC(c1ccc(Cl)cc1)(c1cccnc1)c1ccc(F)cc1F (configuration not stated),,16.4,,70.2,,29,
N#CC(c1ccc(Cl)cc1)(c1cccnc1)c1ccccc1Cl (configuration not stated),,50,,56.8,,220,
CC(C)C(=O)Nc1ncc(C(O)(c2ccc(Cl)cc2)c2cccnc2)s1 (configuration not stated),,17,,56.6,,88,
O=C(Nc1ccc(Cl)cc1)N1CCN(C(c2cncnc2)c2ccc(Cl)cc2F)CC1 (configuration not stated),,10,,33.6,,30,
O=S(=O)(C1CCCCC1)N1CCN(C(c2ccc(Cl)cc2)c2cccnc2)CC1 (configuration not stated),,10,,55.8,,35,
OC(c1ccc(Cl)cc1)(c1cccnc1)c1ccccc1Cl (configuration not stated),210 nM,270,,61.3,,,60
O=C(Nc1ccccc1)N1CCN(C(c2cccnc2)c2ccc(Cl)cc2F)CC1 (configuration not stated),,6.2,,45.1,,24,
CC(C)CNC(c1ccc(Cl)cc1)(c1cccnc1)c1ccccc1Cl (configuration not stated),,606,,59.2,,1320,
O=C(Nc1ccccc1)N1CCN(C(c2ccc(Cl)cc2)c2cccnc2)CC1 (configuration not stated),,9,,67.2,,34,

SMILES,IC50 [1],"IC50 [1, 5] [nM]",IC50 ([2]; IC50) [µM],IC50 [3] [µM],IC90 [4],"IC90 [4, 5] [nM]",IC50 [2] [µM]
CC(C)(C)C(=O)N1CCN(C(c2cccnc2)c2ccc(C(F)(F)F)cc2F)CC1 (configuration not stated),,23.5,,72.9,,68.5,
OC(c1ccc(Cl)cc1)(c1cccnc1)c1ccccc1Br (configuration not stated),,76,,55.2,,172,
O=C(c1ccccc1)N1CCN(C(c2ccc(Cl)cc2)c2cccnc2)CC1 (configuration not stated),,68,,61.4,,160,
CC(C)CCON=C(Cc1cccnc1)c1ccc(Cl)cc1Cl,,,61,58.7,,,
CON=C(Cc1cccnc1)c1ccc(Cl)cc1Cl,210 nM and 470 nM and 294 nM,,> 100,81,,,
N#Cc1ccc(C(O)(c2ccc(C(F)(F)F)cc2)c2cccnc2)c(F)c1 (configuration not stated),5.5 nM and 1.9 nM,,77.2,56.1,9.52 nM,12.5,
CC(C)Oc1ncc(C(O)(c2cccnc2)c2ccc(Cl)cc2F)cn1 (configuration not stated),,7.7,,89.5,,> 10,
Fc1cc(Cl)ccc1C(c1cccnc1)N1CCN(c2ccccc2)CC1 (configuration not stated),,18,,57.6,,40,
CC(C)c1ccc(NC(=O)N2CCN(C(c3cncnc3)c3ccc(Cl)cc3F)CC2)cc1 (configuration not stated),,6.5,,61.9,,16,
OC(c1cccnc1)(c1ccc(Cl)cc1F)c1ccc(Cl)cc1F,,16,,56.3,,36,
OC(c1ccc(Cl)cc1)(c1cccnc1)c1ccc(C(F)(F)F)cc1F (configuration not stated),,21,,57.4,,70,
CN(C)c1ccc(C(O)(c2ccc(C(F)(F)F)cc2)c2cccnc2)cc1 (configuration not stated),,6,,59.1,,28,
OC(c1ccc(C(F)(F)F)cc1)(c1ccc(C(F)(F)F)cc1)c1cccnc1,,14.9,,50.6,,38,
OC(c1ccc(Cl)cc1)(c1cccnc1)c1cccc(Br)c1 (configuration not stated),,54,,54.1,,80,
CS(=O)(=O)N1CCN(C(c2cccnc2)c2ccc(C(F)(F)F)cc2F)CC1 (configuration not stated),,27.5,,76.9,,82.5,
OC(c1ccc(Cl)cc1)(c1cccnc1)c1cccc(C(F)(F)F)c1 (configuration not stated),,67,,60.4,,162,
OC(c1ccc(Cl)cc1)(c1ccc(Br)cc1)c1cccnc1 (configuration not stated),,31,,57,,79,
CC(C)(C)C(=O)N1CCN(C(c2ccc(C(F)(F)F)cc2)c2cccnc2)CC1 (configuration not stated),,30,,58.6,,127,
O=S(=O)(c1ccc(Cl)cc1)N1CCN(C(c2ccc(Cl)cc2)c2cccnc2)CC1 (configuration not stated),,24,,23,,97,
O=C(Oc1ccccc1)N1CCN(C(c2cccnc2)c2ccc(Cl)cc2F)CC1 (configuration not stated),,4.5,,59.1,,12,
O=C(C1CCCCC1)N1CCC(NC(c2ccc(C(F)(F)F)cc2)c2cnccn2)CC1 (configuration not stated),250 nM,,,92.4,860 nM,,

# Source: ChEMBL document CHEMBL1862790, “Optimisation of fenarimol series for the treatment of Chagas disease”
